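Cells were grown in 96-well plates and exposed to each compound for 48 hours at five concentrations; endpoints were interpolated linearly between bracketing concentrations, or set to the highest concentration if not reached. TGI marks complete inhibition of growth.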
Assays:
Test in all cases: inhibition of tumour cell growth, NCI panel, 48 h
[1] = system: T-47D breast
[2] = system: NCI-H226 lung
[3] = system: MALME-3M melanoma
[4] = system: SK-MEL-2 melanoma
[5] = system: MDA-N
[6] = system: MCF7 breast
[7] = system: MDA-MB-435
[8] = system: DU-145 prostate
[9] = system: HS 578T breast
[10] = system: SNB-75 CNS
[11] = system: SR leukemia
[12] = system: HCT-116 colon
[13] = system: COLO 205 colon
[14] = system: SK-MEL-5 melanoma
[15] = system: SN12C renal
[16] = system: HT29 colon
[17] = system: IGROV1 ovarian
[18] = system: K-562 leukemia
[19] = system: PC-3 prostate
[20] = system: KM12 colon
[21] = system: UACC-257 melanoma
[22] = system: OVCAR-8 ovarian
[23] = system: CAKI-1 renal
[24] = system: OVCAR-3 ovarian
[25] = system: MOLT-4 leukemia
[26] = system: SF-539 CNS
[27] = system: HOP-92 NSCLC
[28] = system: SF-295 CNS
[29] = system: ACHN renal
[30] = system: MDA-MB-231 breast
[31] = system: NCI/ADR-RES ovarian
[32] = system: NCI-H460 lung
[33] = system: SK-OV-3 ovarian
[34] = system: CCRF-CEM leukemia
[35] = system: TK-10 renal
[36] = system: M14 melanoma
[37] = system: HCC-2998 colon
[38] = system: U251 CNS
[39] = system: OVCAR-4 ovarian
[40] = system: SNB-19 CNS
[41] = system: LOX IMVI melanoma
[42] = system: BT-549 breast
[43] = system: UACC-62 melanoma
[44] = system: HCT-15 colon
[45] = system: SW-620 colon
[46] = system: OVCAR-5 ovarian
[47] = system: A549 NSCLC
[48] = system: 786-0 renal
[49] = system: UO-31 renal
[50] = system: HOP-62 NSCLC
[51] = system: EKVX NSCLC
[52] = system: SK-MEL-28 melanoma
[53] = system: NCI-H23 lung
[54] = system: A498 renal
[55] = system: SF-268 CNS
[56] = system: NCI-H522 lung
[57] = system: RPMI-8226 leukemia
[58] = system: HL-60(TB) leukemia
[59] = system: RXF 393 renal

`S=c1nc(Cc2ccc(Cl)cc2)[nH][nH]1` gave a TGI [1] of 99.6 µM, a TGI [2] greater than 100 µM and a TGI [3] greater than 100 µM. The TGI [4] was greater than 100 µM, the TGI [5] was greater than 100 µM and the TGI [6] was greater than 100 µM. It also gave a TGI [7] greater than 100 µM, a TGI [8] greater than 100 µM and a TGI [9] greater than 100 µM. It also gave a TGI [10] greater than 100 µM, a TGI [11] greater than 100 µM and a TGI [12] greater than 100 µM. For the same compound, the TGI [13] was greater than 100 µM, the TGI [14] was greater than 100 µM and the TGI [15] was greater than 100 µM. It also gave a TGI [16] greater than 100 µM, a TGI [17] greater than 100 µM and a TGI [18] greater than 100 µM. The TGI [19] was greater than 100 µM, the TGI [20] was greater than 100 µM and the TGI [21] was greater than 100 µM. For the same compound, the TGI [22] was greater than 100 µM, the TGI [23] was greater than 100 µM and the TGI [24] was greater than 100 µM. The TGI [25] was greater than 100 µM, the TGI [26] was greater than 100 µM and the TGI [27] was 85.7 µM. The TGI [28] was greater than 100 µM, the TGI [29] was greater than 100 µM and the TGI [30] was greater than 100 µM. The TGI [31] was greater than 100 µM, the TGI [32] was greater than 100 µM and the TGI [33] was greater than 100 µM. It also gave a TGI [34] greater than 100 µM, a TGI [35] greater than 100 µM and a TGI [36] greater than 100 µM. For the same compound, the TGI [37] was greater than 100 µM, the TGI [38] was greater than 100 µM and the TGI [39] was greater than 100 µM. It also gave a TGI [40] greater than 100 µM, a TGI [41] greater than 100 µM and a TGI [42] greater than 100 µM. For the same compound, the TGI [43] was greater than 100 µM, the TGI [44] was greater than 100 µM and the TGI [45] was greater than 100 µM. The TGI [46] was greater than 100 µM, the TGI [47] was greater than 100 µM and the TGI [48] was greater than 100 µM. For the same compound, the TGI [49] was greater than 100 µM, the TGI [50] was greater than 100 µM and the TGI [51] was greater than 100 µM. It also gave a TGI [52] greater than 100 µM, a TGI [53] greater than 100 µM and a TGI [54] greater than 100 µM.

`CCOC(=O)C1C(c2ccc(OC)cc2)c2c([nH]n(-c3ccccc3)c2=O)CC1(O)OCC` (centres undefined) gave a TGI [1] greater than 100 µM, a TGI [3] greater than 100 µM and a TGI [4] greater than 100 µM. The TGI [5] was greater than 100 µM, the TGI [6] was greater than 100 µM and the TGI [7] was greater than 100 µM. It also gave a TGI [8] greater than 100 µM, a TGI [9] greater than 100 µM and a TGI [10] greater than 100 µM. The TGI [11] was greater than 100 µM, the TGI [12] was greater than 100 µM and the TGI [13] was greater than 100 µM. For the same compound, the TGI [55] was greater than 100 µM, the TGI [14] was greater than 100 µM and the TGI [15] was greater than 100 µM. The TGI [16] was greater than 100 µM, the TGI [17] was greater than 100 µM and the TGI [19] was greater than 100 µM. It also gave a TGI [20] greater than 100 µM, a TGI [21] greater than 100 µM and a TGI [22] greater than 100 µM. It also gave a TGI [23] greater than 100 µM, a TGI [24] greater than 100 µM and a TGI [25] of 14 µM. The TGI [26] was greater than 100 µM, the TGI [27] was greater than 100 µM and the TGI [28] was greater than 100 µM. The TGI [29] was greater than 100 µM, the TGI [30] was greater than 100 µM and the TGI [56] was greater than 100 µM. For the same compound, the TGI [31] was greater than 100 µM, the TGI [57] was greater than 100 µM and the TGI [32] was greater than 100 µM. It also gave a TGI [35] greater than 100 µM, a TGI [36] greater than 100 µM and a TGI [37] greater than 100 µM. The TGI [38] was greater than 100 µM, the TGI [58] was 15 µM and the TGI [39] was greater than 100 µM. For the same compound, the TGI [41] was greater than 100 µM, the TGI [42] was greater than 100 µM and the TGI [43] was greater than 100 µM. It also gave a TGI [44] greater than 100 µM, a TGI [45] greater than 100 µM and a TGI [46] greater than 100 µM. The TGI [47] was greater than 100 µM, the TGI [48] was greater than 100 µM and the TGI [49] was greater than 100 µM. It also gave a TGI [50] greater than 100 µM, a TGI [51] greater than 100 µM and a TGI [52] greater than 100 µM. It also gave a TGI [53] greater than 100 µM and a TGI [54] greater than 100 µM.

`C1=Nc2ccc(cc2)N=Cc2ccc(cc2)OCc2cccc(n2)COc2ccc1cc2` showed a TGI [1] greater than 100 µM, a TGI [2] greater than 100 µM and a TGI [3] greater than 100 µM. It also gave a TGI [4] greater than 100 µM, a TGI [5] greater than 100 µM and a TGI [6] greater than 100 µM. The TGI [7] was greater than 100 µM, the TGI [8] was greater than 100 µM and the TGI [9] was greater than 100 µM. The TGI [10] was greater than 100 µM, the TGI [11] was greater than 100 µM and the TGI [12] was greater than 100 µM. It also gave a TGI [13] greater than 100 µM, a TGI [55] greater than 100 µM and a TGI [14] greater than 100 µM. It also gave a TGI [15] greater than 100 µM, a TGI [16] greater than 100 µM and a TGI [17] greater than 100 µM. The TGI [18] was greater than 100 µM, the TGI [19] was greater than 100 µM and the TGI [20] was greater than 100 µM. It also gave a TGI [21] greater than 100 µM, a TGI [22] greater than 100 µM and a TGI [23] greater than 100 µM. The TGI [24] was greater than 100 µM, the TGI [25] was greater than 100 µM and the TGI [26] was greater than 100 µM. For the same compound, the TGI [59] was greater than 100 µM, the TGI [27] was greater than 100 µM and the TGI [28] was greater than 100 µM. For the same compound, the TGI [29] was greater than 100 µM, the TGI [30] was greater than 100 µM and the TGI [56] was greater than 100 µM. It also gave a TGI [31] greater than 100 µM, a TGI [57] greater than 100 µM and a TGI [32] greater than 100 µM. For the same compound, the TGI [33] was greater than 100 µM, the TGI [34] was greater than 100 µM and the TGI [36] was greater than 100 µM. It also gave a TGI [38] greater than 100 µM, a TGI [58] greater than 100 µM and a TGI [39] greater than 100 µM. The TGI [40] was greater than 100 µM, the TGI [42] was greater than 100 µM and the TGI [43] was greater than 100 µM. For the same compound, the TGI [44] was greater than 100 µM, the TGI [45] was greater than 100 µM and the TGI [46] was greater than 100 µM. It also gave a TGI [47] greater than 100 µM, a TGI [48] greater than 100 µM and a TGI [49] greater than 100 µM. It also gave a TGI [50] greater than 100 µM, a TGI [51] greater than 100 µM and a TGI [52] greater than 100 µM. For the same compound, the TGI [53] was greater than 100 µM and the TGI [54] was greater than 100 µM.

`Cc1ncc([N+](=O)[O-])n1CCN(C)C(=O)CCCn1ccnc1[N+](=O)[O-]` showed a TGI [1] greater than 100 µM, a TGI [2] greater than 100 µM and a TGI [3] greater than 100 µM. The TGI [4] was greater than 100 µM, the TGI [5] was greater than 100 µM and the TGI [6] was greater than 100 µM. It also gave a TGI [7] greater than 100 µM, a TGI [8] greater than 100 µM and a TGI [9] greater than 100 µM. For the same compound, the TGI [10] was greater than 100 µM, the TGI [11] was greater than 100 µM and the TGI [12] was greater than 100 µM. For the same compound, the TGI [13] was greater than 100 µM, the TGI [55] was greater than 100 µM and the TGI [14] was greater than 100 µM. The TGI [15] was greater than 100 µM, the TGI [16] was greater than 100 µM and the TGI [17] was greater than 100 µM. It also gave a TGI [18] greater than 100 µM, a TGI [19] greater than 100 µM and a TGI [20] greater than 100 µM. The TGI [21] was greater than 100 µM, the TGI [22] was greater than 100 µM and the TGI [23] was greater than 100 µM. The TGI [24] was greater than 100 µM, the TGI [25] was greater than 100 µM and the TGI [26] was greater than 100 µM. For the same compound, the TGI [59] was greater than 100 µM, the TGI [28] was greater than 100 µM and the TGI [29] was greater than 100 µM. The TGI [30] was greater than 100 µM, the TGI [56] was greater than 100 µM and the TGI [31] was greater than 100 µM. For the same compound, the TGI [57] was greater than 100 µM, the TGI [32] was greater than 100 µM and the TGI [33] was greater than 100 µM. It also gave a TGI [34] greater than 100 µM, a TGI [35] greater than 100 µM and a TGI [36] greater than 100 µM. For the same compound, the TGI [38] was greater than 100 µM, the TGI [58] was greater than 100 µM and the TGI [39] was greater than 100 µM. It also gave a TGI [41] greater than 100 µM, a TGI [42] greater than 100 µM and a TGI [43] greater than 100 µM. It also gave a TGI [44] greater than 100 µM, a TGI [45] greater than 100 µM and a TGI [46] greater than 100 µM. The TGI [47] was greater than 100 µM, the TGI [48] was greater than 100 µM and the TGI [49] was greater than 100 µM. It also gave a TGI [50] greater than 100 µM, a TGI [51] greater than 100 µM and a TGI [52] greater than 100 µM. It also gave a TGI [53] greater than 100 µM and a TGI [54] greater than 100 µM.
